{
  "source": "patent US3984413A",
  "about": "“Phenoxyalkanecarboxylic acid esters of hydroxyalkyltheophyllines and method for their manufacture” (L. Merckle KG, priority 1973, dated 1976)",
  "key": {"[1]": {"assay": "action on peripheral circulation in narcotized dogs", "assay_type": "in vivo, dog", "from_the_text": "According to Examples 2, 3 and 4, the peripheral circulation is increased some 20-30% of its initial level by the test substances according to those examples."}, "[2]": {"assay": "acute toxicity (LD50) in rats, oral", "conditions": "in vivo, rat", "procedure": "(§1) The acute toxicity of the preparations according to the invention was tested on CFJ strain mice and Sprague-Dawley rats.\n(§2) The test substances according to Examples 2,5,6,8 and 10 were administered orally as a 5% suspension in methylcellulose by means of a probang, while the test material according to Example 4, was administered in a 8% gelatin suspension. The test materials for Examples 1 and 3 were administered orally by probang in an aqueous kaolin paste to rats (5 female and 5 male rats weighing 140 to 185 grams each).\n(§3) The period of observation was 7 days."}, "[3]": {"assay": "over-all tolerance and clinical pattern during the rat lipid trial", "assay_type": "in vivo, rat (male SPF Wistar)", "procedure": "(§4) The antilipemic and anticholesterolemic action of the compounds according to the invention and of Clofibrat as a standard of comparison was tested on each of 10 male SPF Wistar strain rats of body weights from 80 to 90 g. For test purposes the animals were kept individually apart with restricted feed but water as desired. The animals of control group I were given 10 g basal diet daily, those of control group II, the test groups as well as the Clofibrat comparison group received in addition to the basal diet a fatty composition consisting of 40 g/kg butter with 5 g/kg cholesterol. The test substances conforming to the examples, and also the Clofibrat, were suspended in a 0.2% methylcellulose solution and administered by probang. The final cholesterol value and the value of the nonvolatile triglycerides was determined after 14 days treatment. The analyses were performed in the blood serum by means of an SMA 12/60 auto-analyzer.\nThere were no deaths. […] No difference could be determined in hearing tests."}, "[4]": {"assay": "antilipemic and anticholesterolemic action in rats on fatty diet, 14 days", "assay_type": "in vivo, rat (male SPF Wistar)", "conditions": "for Drop (cholesterol) / Drop (nonvolatile triglycerides) / Final value cholesterol / Final value nonvolatile triglycerides: 14 days; for Final value cholesterol / Final value nonvolatile triglycerides: blood serum; for reduction of the triglycerides compared with Clofibrat: in a substantially lower dosage than Clofibrat", "procedure": "as §4"}, "[5]": {"assay": "acute toxicity (LD50) in mice, oral", "conditions": "in vivo, mouse", "procedure": "as §1, §2, §3"}, "[6]": {"assay": "action on blood pressure in narcotized dogs", "conditions": "into the duodenum, doses up to 200 mg/kg"}, "[7]": {"conditions": "mouse; comparison, literature data; 10080 min; cited from earlier work"}, "[8]": {"conditions": "cited from earlier work"}, "[9]": {"conditions": "oral, 5% suspension in methylcellulose, 7 days, according to Litchfield and Wilcoxon"}, "[10]": {"conditions": "versus control groups and Clofibrat comparison group"}},
  "note": "Read-outs that look alike come from different tables or passages of the source.",
  "data": [
    {"smiles": "Cn1c(=O)c2c(ncn2CCOC(=O)C(C)(C)Oc2ccc(Cl)cc2)n(C)c1=O", "note": "[Example 1, 1-(7-theophyllinyl)-2-ethyl [2-(p-chlorophenoxy)-isobutyrate]]", "values": [
      {"measurement": "increase of peripheral circulation, of its initial level", "setting": "[1]", "result": "up to 10%"},
      {"measurement": "peripheral circulation activity (in words)", "setting": "[1]", "result": "only slight activity"},
      {"measurement": "LD50 at 168 h", "setting": "[2]; oral by probang, aqueous kaolin paste, 7 days observation", "result": "> 4000", "unit": "mg/kg"},
      {"measurement": "over-all tolerance", "setting": "[3]; rat, in vivo", "result": "no differences in the over-all tolerance"},
      {"measurement": "Drop (cholesterol)", "setting": "[4]; 100 mg/kg", "result": 22.7, "unit": "%"},
      {"measurement": "Drop (nonvolatile triglycerides)", "setting": "[4]; 100 mg/kg", "result": 17.3, "unit": "%"},
      {"measurement": "Final value cholesterol", "setting": "[4]; 100 mg/kg", "result": 95.2, "unit": "mg %"},
      {"measurement": "Final value nonvolatile triglycerides", "setting": "[4]; 100 mg/kg", "result": 112.2},
      {"measurement": "lowering of increased cholesterol values (in words)", "setting": "[4]; in comparison to Clofibrat", "result": "with greater significance lower the increased cholesterol values"},
      {"measurement": "reduction of the triglycerides (in words)", "setting": "[4]; rat, in vivo", "result": "comparatively good reduction of the triglycerides"}
    ]},
    {"smiles": "Cn1c(=O)c2c(ncn2CCOC(=O)COc2ccc(F)cc2)n(C)c1=O", "note": "[Example 10]", "values": [
      {"measurement": "LD50 at 168 h", "setting": "[5]; [9]", "result": 1680, "unit": "mg/kg"}
    ]},
    {"smiles": "Cn1c(=O)c2c(ncn2CC(COC(=O)COc2ccc(Cl)cc2)OC(=O)COc2ccc(Cl)cc2)n(C)c1=O", "note": "(stereo not shown) [Example 3, 1-(7-theophyllinyl)-2,3-propylidenedi(p-chlorophenoxy acetate)]", "values": [
      {"measurement": "increase of peripheral circulation, of its initial level", "setting": "[1]", "result": "20-30%"},
      {"measurement": "LD50 at 168 h", "setting": "[2]; po", "result": "> 4000", "unit": "mg/kg"},
      {"measurement": "over-all tolerance", "setting": "[3]; [10]", "result": "no differences in the over-all tolerance"},
      {"measurement": "Drop (nonvolatile triglycerides)", "setting": "[4]; 100 mg/kg", "result": 44.2, "unit": "%"},
      {"measurement": "Final value cholesterol", "setting": "[4]; 100 mg/kg", "result": 122.0, "unit": "mg %"},
      {"measurement": "Final value nonvolatile triglycerides", "setting": "[4]; 100 mg/kg", "result": 75.7},
      {"measurement": "reduction of the triglycerides compared with Clofibrat", "setting": "[4]", "result": "more than twice as large a reduction of the triglycerides"},
      {"measurement": "systolic and diastolic blood pressure", "setting": "[6]", "result": "did not acutely affect the systolic and diastolic blood pressure to any substantial degree"}
    ]},
    {"smiles": "CC(Oc1cccc(C(F)(F)F)c1)C(=O)OCCn1cnc2c1c(=O)n(C)c(=O)n2C", "note": "(stereo not shown) [Example 8]", "values": [
      {"measurement": "LD50 at 168 h", "setting": "[5]; [9]", "result": 2140, "unit": "mg/kg"}
    ]},
    {"smiles": "CCOC(=O)C(C)(C)Oc1ccc(Cl)cc1", "note": "[Clofibrat, ethyl 2-(p-chlorophenoxy) isobutyrate, reference compound]", "values": [
      {"measurement": "LD50", "setting": "[7]", "result": 1150, "unit": "mg/kg"},
      {"measurement": "Drop (nonvolatile triglycerides)", "setting": "[4]; 250 mg/kg", "result": 20.6, "unit": "%"},
      {"measurement": "Final value cholesterol", "setting": "[4]; 250 mg/kg", "result": 133.3, "unit": "mg %"},
      {"measurement": "Final value nonvolatile triglycerides", "setting": "[4]; 250 mg/kg", "result": 107.7},
      {"measurement": "lowering of cholesterol", "setting": "[4]; fatty diet rats, in these experimental trials", "result": "absolutely inactive"},
      {"measurement": "effect on cholesterol value", "setting": "[8]; fatty diet rat test, Berger et al. 1969", "result": "does not lower but even raises the cholesterol value"},
      {"measurement": "lowering of cholesterol", "setting": "[8]; reported in the literature", "result": "frequently been reported in the literature"}
    ]},
    {"smiles": "Cn1c(=O)c2c(ncn2CCOC(=O)C(Oc2ccc(Cl)cc2)Oc2ccc(Cl)cc2)n(C)c1=O", "note": "[Example 4, 1-(7-theophyllinyl)-2-ethyl bis-(p-chlorophenoxy) acetate]", "values": [
      {"measurement": "increase of peripheral circulation, of its initial level", "setting": "[1]", "result": "20-30%"},
      {"measurement": "weight increase", "setting": "[3]; 100 mg/kg dosage", "result": "reduced increase in weight"},
      {"measurement": "Final value cholesterol", "setting": "[4]; 35 mg/kg", "result": 132.3, "unit": "mg %"},
      {"measurement": "Final value nonvolatile triglycerides", "setting": "[4]; 35 mg/kg", "result": 148.3},
      {"measurement": "Drop (cholesterol)", "setting": "[4]; 100 mg/kg", "result": 9.8, "unit": "%"},
      {"measurement": "Final value cholesterol", "setting": "[4]; 100 mg/kg", "result": 111.0, "unit": "mg %"},
      {"measurement": "Final value nonvolatile triglycerides", "setting": "[4]; 100 mg/kg", "result": 179.7},
      {"measurement": "LD50 at 168 h", "setting": "[5]; po", "result": 1910, "unit": "mg/kg"},
      {"measurement": "systolic and diastolic blood pressure", "setting": "[6]", "result": "did not acutely affect the systolic and diastolic blood pressure to any substantial degree"}
    ]},
    {"smiles": "CC(Oc1ccc(Cl)cc1)C(=O)OCCn1cnc2c1c(=O)n(C)c(=O)n2C", "note": "(stereo not shown) [Example 6]", "values": [
      {"measurement": "LD50 at 168 h", "setting": "[5]; [9]", "result": 1540, "unit": "mg/kg"}
    ]},
    {"smiles": "Cn1c(=O)c2c(ncn2CC(O)COC(=O)COc2ccc(Cl)cc2)n(C)c1=O", "note": "(stereo not shown) [Example 2, 1-(7-theophyllinyl)-2-hydroxy-3-propyl (p-chlorophenoxyacetate)]", "values": [
      {"measurement": "increase of peripheral circulation, of its initial level", "setting": "[1]", "result": "20-30%"},
      {"measurement": "over-all tolerance", "setting": "[3]; [10]", "result": "no differences in the over-all tolerance"},
      {"measurement": "Drop (nonvolatile triglycerides)", "setting": "[4]; 100 mg/kg", "result": 45.9, "unit": "%"},
      {"measurement": "Final value cholesterol", "setting": "[4]; 100 mg/kg", "result": 130.3, "unit": "mg %"},
      {"measurement": "Final value nonvolatile triglycerides", "setting": "[4]; 100 mg/kg", "result": 73.4},
      {"measurement": "reduction of the triglycerides compared with Clofibrat", "setting": "[4]", "result": "more than twice as large a reduction of the triglycerides"},
      {"measurement": "LD50 at 168 h", "setting": "[5]; [9]", "result": 2150, "unit": "mg/kg"},
      {"measurement": "systolic and diastolic blood pressure", "setting": "[6]", "result": "did not acutely affect the systolic and diastolic blood pressure to any substantial degree"}
    ]},
    {"smiles": "Cn1c(=O)c2c(ncn2CCOC(=O)COc2ccc(Cl)cc2)n(C)c1=O", "note": "[Example 5]", "values": [
      {"measurement": "LD50 at 168 h", "setting": "[5]; [9]", "result": 1510, "unit": "mg/kg"}
    ]}
  ]
}
